Results reported in patent US8476265B2, “Compounds-801” (AstraZeneca AB, priority 2010, dated 2013).
Counter-ions that a name gives are not always drawn.

How the values were obtained:
[1] = biological target: T1, human muscarinic acetylcholine M3 receptor (Homo sapiens, UniProt P20309); assay: Muscarinic 3 receptor binding assay ([3H]NMS competition, SPA), single concentration 1 μM; settings: 1 μM compound; % inhibition specific [3H]-NMS binding
T1 construct: expressed in transfected cells; host or cells: CHO-K1 (Chinese Hamster Ovary) cell membranes
Method: The following experimental procedure was used to determine the M3% inhibition at 1 μM of the compounds of Examples 99-175
Muscarinic 3 Receptor Binding Assay
The activity (% inhibition specific binding) of compounds on the M3 receptor is determined by competition binding of [^3H]N-methyl scopolamine (NMS) to CHO-K1 (Chinese Hamster Ovary) cell membranes expressing the human muscarinic acetylcholine M3 receptor (M3-ACh) in a scintillation proximity assay (SPA) format. SPA beads are precoated with membranes and then incubated at 2 mg of beads per well with 1 μM compound of the invention, [^3H]NMS at 0.1 nM, quarter Kd (experimentally determined dissociation constant) and assay buffer (20 mM HEPES pH 7.4 containing 5 mM MgCl2 and 0.1% (w/v) bovine serum albumin). The assay is conducted in a final volume of 200 μL, in the presence of 1% (v/v) dimethyl sulphoxide (DMSO). Total binding of [^3H]NMS is determined in the absence of competing compound and non-specific binding of [^3H]NMS is determined in the presence of 1 μM atropine. The plates are incubated for 16 hours at room temperature and then read on Wallac Microbeta™ using a normalised ^3H protocol. The compound activity at 1 μM, defined as % inhibition specific [^3H]-NMS binding, is determined.

Adrenergic β2 [2] = biological target: T2, Adrenergic β2 (Homo sapiens, UniProt P07550); assay: Adrenergic β2 mediated cAMP production in H292 cells, single concentration 1 μM; format: cell-based; settings: NCI-H292, 1 μM compound, cAMP as percentage of the maximum response generated by 1E-07M formoterol, read-out: β2 % effect @1 uM
T2 construct: Adherent H292 cells are removed from tissue culture flasks by treatment with Accutase™ cell detachment solution; endogenous in cells; host or cells: H292 cells
Method: The following experimental procedure was used to measure the beta-2% effect at 1 μM for the compounds of Examples 99-175. Adrenergic p2 Mediated cAMP Production Cell Preparation
H292 cells are grown in 225 cm2 flasks incubator at 37° C., 5% CO2 in RPMI medium containing 10% (v/v) FBS (foetal bovine serum) and 2 mM L-glutamine.
Compounds are prepared by an initial first dilution into DMSO to give 1 mM stock concentration. This is followed by a 1 in 10 dilution of the stock concentration (10 μl stock compound +90 μl DMSO) to give 0.1 mM compound. A compound addition plate is prepared by making a further 1 in 25 dilution in assay buffer (HBSS solution containing 10 mM HEPES pH7.4 and 5 mM glucose) containing 4% dimethylsulfoxide. The final compound concentration in assay is 1 μM.
Adherent H292 cells are removed from tissue culture flasks by treatment with Accutase™ cell detachment solution for 15 minutes. Flasks are incubated for 15 minutes in a humidified incubator at 37° C., 5% CO2. Detached cells are re-suspended in RPMI media (containing 10% (v/v) FBS and 2 mM L-glutamine) at 0.1×10^6 cells per mL. 10000 cells in 100 μL are added to each well of a tissue-culture-treated 96-well plate and the cells incubated overnight in a humidified incubator at 37° C., 5% CO2. The culture media is removed and cells are washed twice with 100 μL assay buffer and replaced with 50 μL assay buffer (HBSS solution containing 10 mM HEPES pH7.4 and 5 mM glucose). Cells are rested at room temperature for 20 minutes after which time 25 μL of rolipram (1.2 mM made up in assay buffer) is added. Cells are incubated with rolipram for 10 minutes after which time 25 μl test compounds are added and the cells are incubated for 60 minutes at room temperature. The final rolipram concentration in the assay is 300 μM and final vehicle concentration is 1% (v/v) dimethylsulphoxide. The reaction is stopped by removing supernatants, washing once with 100 μL assay buffer and replacing with 50 μL lysis buffer. The cell monolayer is frozen at −80° C. for 30 minutes (or overnight).
AlphaScreen™ cAMP Detection
The concentration of cAMP (cyclic adenosine monophosphate) in the cell lysate is determined using AlphaScreen™ methodology. The frozen cell plate is thawed for 20 minutes on a plate shaker then 10 μL of the cell lysate is transferred to a 96-well white plate. 40 μl of mixed AlphaScreen™ detection beads (containing equal volumes of donor beads (pre-incubated with biotinylated cAMP in the dark for 30 minutes) and acceptor beads is added to each well and the plate incubated at room temperature for 3 hours in the dark. The AlphaScreen™ signal is measured using an EnVision spectrophotometer (Perkin-Elmer Inc.) with the recommended manufacturer's settings. Concentration of cAMP produced per well were calculated with reference to the cAMP standard curve determined in the same experiment and expressed as a percentage of the maximum response generated by 1E-07M formoterol.

Adrenergic β2 [3] = biological target: T2, Adrenergic β2; assay: Adrenergic β2 mediated cAMP production in H292 cells (AlphaScreen), concentration response; format: cell-based; settings: for EC50: 60 min, 300 μM rolipram, read-out: β2 pEC50 (converted); for β2 Intrinsic Activity: fraction relative to the maximum activity determined for formoterol
Method in brief: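 Intracellular cAMP in lysates read by AlphaScreen, calibrated with cAMP standards; curves fitted for pEC50, with intrinsic activity as a fraction of formoterol's maximum. Agonist exposure 60 min at room temperature after 10 min rolipram (300 μM final), 1% DMSO, HEPES-buffered HBSS pH 7.4.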

[4] = biological target: T1, human muscarinic acetylcholine M3 receptor; assay: Muscarinic 3 receptor binding assay ([3H]NMS competition, SPA), pIC50; settings: [3H]NMS 0.1 nM, CHO-K1 cell membranes expressing human M3 receptor
Method in brief: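 SPA beads precoated with human M3-expressing CHO-K1 membranes were incubated 16 h at room temperature with serially diluted compound and 0.1 nM [3H]NMS (pH 7.4 HEPES buffer, MgCl2, BSA, 1% DMSO). Atropine (1 μM) defined non-specific binding; pIC50 is the 50% reduction in specific binding.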

T2 sequence (P07550 whole entry): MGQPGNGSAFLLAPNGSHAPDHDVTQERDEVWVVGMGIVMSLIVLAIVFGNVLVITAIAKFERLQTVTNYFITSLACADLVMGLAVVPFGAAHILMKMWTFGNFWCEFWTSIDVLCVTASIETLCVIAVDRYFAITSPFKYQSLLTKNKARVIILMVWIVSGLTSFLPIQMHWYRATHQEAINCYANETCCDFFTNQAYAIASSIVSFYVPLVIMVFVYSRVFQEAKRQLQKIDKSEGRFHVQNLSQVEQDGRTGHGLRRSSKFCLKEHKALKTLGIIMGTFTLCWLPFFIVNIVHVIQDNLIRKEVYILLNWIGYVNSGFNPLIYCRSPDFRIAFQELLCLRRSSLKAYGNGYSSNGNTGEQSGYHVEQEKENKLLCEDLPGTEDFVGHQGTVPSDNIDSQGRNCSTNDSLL
T1 sequence (P20309 whole entry): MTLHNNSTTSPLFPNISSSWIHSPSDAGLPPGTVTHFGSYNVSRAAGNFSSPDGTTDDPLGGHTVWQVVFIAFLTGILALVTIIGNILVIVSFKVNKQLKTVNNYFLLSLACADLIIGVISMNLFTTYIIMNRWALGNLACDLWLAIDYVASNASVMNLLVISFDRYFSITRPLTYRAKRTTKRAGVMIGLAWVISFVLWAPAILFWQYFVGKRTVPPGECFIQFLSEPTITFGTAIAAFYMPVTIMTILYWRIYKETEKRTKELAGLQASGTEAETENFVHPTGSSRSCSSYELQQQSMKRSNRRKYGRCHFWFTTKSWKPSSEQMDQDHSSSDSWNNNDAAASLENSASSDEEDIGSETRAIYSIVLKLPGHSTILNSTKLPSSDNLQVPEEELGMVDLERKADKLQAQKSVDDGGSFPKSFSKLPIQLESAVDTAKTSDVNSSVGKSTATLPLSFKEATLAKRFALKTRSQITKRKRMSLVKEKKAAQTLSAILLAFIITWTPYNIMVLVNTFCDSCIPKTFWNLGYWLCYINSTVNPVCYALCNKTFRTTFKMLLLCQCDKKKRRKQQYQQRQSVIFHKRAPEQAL

inhibition at 1 µM [1] | percent of formoterol maximum response at 1 µM (Adrenergic β2 [2]) | EC50 (Adrenergic β2 [3]) | β2 Intrinsic Activity (Adrenergic β2 [3]) | IC50 [4] | SMILES
99% | 112% |  |  |  | O=C1COc2c(CCNCCN(C(=O)CCOCCc3cccc(CN4CCC5(CC4)CN(C(=O)c4cnc6ccccc6c4)CCO5)c3)C3CCCCC3)ccc(O)c2N1 [Example 99, N-Cyclohexyl-N-(2-(2-(5-hydroxy-3-oxo-3,4-dihydro-2H-benzo[b][1,4]oxazin-8-yl)ethylamino)ethyl)-3-(3-((4-(quinoline-3-carbonyl)-1-oxa-4,9-diazaspiro[5.5]undecan-9-yl)methyl)phenethoxy)propanamide]
96% | 95% |  |  |  | O=C1COc2c(CCNCCN(C(=O)CCOCCc3cccc(CN4CCC5(CC4)CN(C(=O)c4cccc6cccnc46)CCO5)c3)C3CCCCC3)ccc(O)c2N1 [Example 100, N-Cyclohexyl-N-(2-(2-(5-hydroxy-3-oxo-3,4-dihydro-2H-benzo[b][1,4]oxazin-8-yl)ethylamino)ethyl)-3-(3-((4-(quinoline-8-carbonyl)-1-oxa-4,9-diazaspiro[5.5]undecan-9-yl)methyl)phenethoxy)propanamide]
95% | 105% |  |  |  | CCOc1ncccc1C(=O)N1CCOC2(CCN(Cc3cccc(CCOCCC(=O)N(CCNCCc4ccc(O)c5c4OCC(=O)N5)C4CCCCC4)c3)CC2)C1 [Example 101, N-Cyclohexyl-3-(3-((4-(2-ethoxynicotinoyl)-1-oxa-4,9-diazaspiro[5.5]undecan-9-yl)methyl)phenethoxy)-N-(2-(2-(5-hydroxy-3-oxo-3,4-dihydro-2H-benzo[b][1,4]oxazin-8-yl)ethylamino)ethyl)propanamide]
99% | 108% |  |  |  | O=C1COc2c(CCNCCN(C(=O)CCOCCc3cccc(CN4CCC5(CC4)CN(C(=O)c4cncc(Br)c4)CCO5)c3)C3CCCCC3)ccc(O)c2N1 [Example 102, 3-(3-((4-(5-Bromonicotinoyl)-1-oxa-4,9-diazaspiro[5.5]undecan-9-yl)methyl)phenethoxy)-N-cyclohexyl-N-(2-(2-(5-hydroxy-3-oxo-3,4-dihydro-2H-benzo[b][1,4]oxazin-8-yl)ethylamino)ethyl)propanamide]
90% | 109% |  |  |  | O=C1COc2c(CCNCCN(C(=O)CCOCCc3cccc(CN4CCC5(CC4)CN(C(=O)CCc4nc6ccccc6[nH]4)CCO5)c3)C3CCCCC3)ccc(O)c2N1 [Example 103, 3-(3-((4-(3-(1H-Benzo[d]imidazol-2-yl)propanoyl)-1-oxa-4,9-diazaspiro[5.5]undecan-9-yl)methyl)phenethoxy)-N-cyclohexyl-N-(2-(2-(5-hydroxy-3-oxo-3,4-dihydro-2H-benzo[b][1,4]oxazin-8-yl)ethylamino)ethyl)propanamide]
101% | 100% |  |  |  | O=C1COc2c(CCNCCN(C(=O)CCOCCc3cccc(CN4CCC5(CC4)CN(C(=O)C(CO)c4ccccc4)CCO5)c3)C3CCCCC3)ccc(O)c2N1 (stereo not drawn) [Example 104, N-Cyclohexyl-3-(3-((4-(3-hydroxy-2-phenylpropanoyl)-1-oxa-4,9-diazaspiro[5.5]undecan-9-yl)methyl)phenethoxy)-N-(2-(2-(5-hydroxy-3-oxo-3,4-dihydro-2H-benzo[b][1,4]oxazin-8-yl)ethylamino)ethyl)propanamide]
99% | 109% |  |  |  | O=C1COc2c(CCNCCN(C(=O)CCOCCc3cccc(CN4CCC5(CC4)CN(C(=O)C4CC=CCC4)CCO5)c3)C3CCCCC3)ccc(O)c2N1 (stereo not drawn) [Example 105, 3-(3-((4-(Cyclohex-3-enecarbonyl)-1-oxa-4,9-diazaspiro[5.5]undecan-9-yl)methyl)phenethoxy)-N-cyclohexyl-N-(2-(2-(5-hydroxy-3-oxo-3,4-dihydro-2H-benzo[b][1,4]oxazin-8-yl)ethylamino)ethyl)propanamide]
100% | 101% |  |  |  | O=C1COc2c(CCNCCN(C(=O)CCOCCc3cccc(CN4CCC5(CC4)CN(C(=O)c4cc6cc(F)ccc6[nH]4)CCO5)c3)C3CCCCC3)ccc(O)c2N1 [Example 107, N-Cyclohexyl-3-(3-((4-(5-fluoro-1H-indole-2-carbonyl)-1-oxa-4,9-diazaspiro[5.5]undecan-9-yl)methyl)phenethoxy)-N-(2-(2-(5-hydroxy-3-oxo-3,4-dihydro-2H-benzo[b][1,4]oxazin-8-yl)ethylamino)ethyl)propanamide]
80% | 98% |  |  |  | Cc1cc2ncc(C(=O)N3CCOC4(CCN(Cc5cccc(CCOCCC(=O)N(CCNCCc6ccc(O)c7c6OCC(=O)N7)C6CCCCC6)c5)CC4)C3)c(C)n2n1 [Example 108, N-Cyclohexyl-3-(3-((4-(2,7-dimethylpyrazolo[1,5-a]pyrimidine-6-carbonyl)-1-oxa-4,9-diazaspiro[5.5]undecan-9-yl)methyl)phenethoxy)-N-(2-(2-(5-hydroxy-3-oxo-3,4-dihydro-2H-benzo[b][1,4]oxazin-8-yl)ethylamino)ethyl)propanamide]
 |  | 10 nM | 1.1 | 1.26 nM | CCN(CCNCCc1ccc(O)c2c1OCC(=O)N2)C(=O)CCOCCc1cccc(CCN2CC3(C2)CN(C(=O)c2csc(C(C)C)n2)CCO3)c1 [Example 177, N-ethyl-N-(2-(2-(5-hydroxy-3-oxo-3,4-dihydro-2H-benzo[b][1,4]oxazin-8-yl)ethylamino)ethyl)-3-(3-(2-(8-(2-isopropylthiazole-4-carbonyl)-5-oxa-2,8-diazaspiro[3.5]nonan-2-yl)ethyl)phenethoxy)propanamide, trifluoroacetate salt]
 |  | 501 nM | 1.2 | 12.6 nM | CCCCN(CCNCCc1ccc(O)c2c1OCC(=O)N2)C(=O)CCOCCc1ccccc1OCCN1CCC2(CC1)CN(C(=O)c1csc(C(C)C)n1)CCO2 [Example 178, N-butyl-N-(2-(2-(5-hydroxy-3-oxo-3,4-dihydro-2H-benzo[b][1,4]oxazin-8-yl)ethylamino)ethyl)-3-(2-(2-(4-(2-isopropylthiazole-4-carbonyl)-1-oxa-4,9-diazaspiro[5.5]undecan-9-yl)ethoxy)phenethoxy)propanamide trifluoroacetate salt]
